# According to patent US20260152794A1, “EFFICACY OF CHRONIC PELVIC PAIN TREATMENT” (THE UNIVERSITY COURT OF THE UNIVERSITY OF EDINBURGH, priority 2022, published 2026):
# What was measured:
# [1] = system: women with chronic pelvic pain; test: Mechanistic fMRI study: brain response to abdominal punctate stimuli before and after 12 weeks of treatment; format: in vivo, human; settings: rs4442490 TT responders (n = 2) compared with TG/GG non-responders (n = 5); brain regions of Table 4
# Excerpt: Within the sample taking part in the gabapentin RCT, a small number also took part in a mechanistic fMRI study, undergoing MRI brain scans before and after 12 weeks of treatment. […] Punctate task fMRI pre-processing is described in the supplementary materials. For those for whom both genetic and imaging data was available, the gabapentin pre- and post-treatment scans were compared. The first-level contrast of post-treatment>pre-treatment punctate vs rest was taken into a random effects analysis comparing SNP variants, with clusters achieving a whole-brain, FWE-corrected significance of p<0.05 being reported.
# [2] = system: women with chronic pelvic pain; settings: embedded mechanistic study of GaPP2 (reference 8); cited from earlier work
# [3] = system: women with chronic pelvic pain; settings: GaPP2 trial, women with CPP (reference 7); cited from earlier work
# [4] = system: women with chronic pelvic pain; test: GaPP2 trial secondary analysis: gabapentin analgesic (pain) response, worst and average pain on numerical rating scale; format: in vivo, human; settings: for Average pain (NRS), End of study: mean; for Average pain (NRS), End of study / Worst pain (NRS), End of study: numerical rating scale 1-10; for Worst pain (NRS), End of study: median
# Excerpt: (§1) This study is a planned secondary analysis of the GaPP2 trial, a UK-based multicentre, randomised, placebo-controlled trial of gabapentin versus placebo in women with chronic pelvic pain. Trial protocol including ethical approval and exclusion and inclusion criteria are published in full elsewhere. (17) All participants were women aged 18-50 years of age, were using or willing to use contraception to avoid pregnancy and had no obvious pelvic pathology at laparoscopy which must have taken place at least 2 weeks and less than 36 months prior to consent. Participants were randomly assigned to gabapentin (titrated to maximum dose 2700 mg daily) or placebo for 16 weeks. At inclusion to the trial, participants were asked to provide a saliva sample for inclusion in this study.
# Cases were categorised into two phenotypes assessing the analgesic response to gabapentin and the degree of intolerance (side-effect burden). Gabapentin analgesic response was defined categorically using the coprimary outcomes of the GaPP2 trial: worst and average pain. Gabapentin ‘responders’ were defined as having reported a ≥30% reduction in worst and/or average pain scores on a numerical rating scale (1-10) after 12 weeks of gabapentin exposure. Gabapentin intolerance was also categorised categorically using a cut-off of ≥3 side-effects reported during the study period. Cases were categorised into ≥3 side-effects and <3 side-effects.
# [5] = system: women with chronic pelvic pain; test: GaPP2 trial secondary analysis: gabapentin intolerance (side-effect burden); format: in vivo, human; settings: side-effects reported during the study period; genotyped participants
# Excerpt: as §1
# Cases were categorised into two phenotypes assessing the analgesic response to gabapentin and the degree of intolerance (side-effect burden). Gabapentin analgesic response was defined categorically using the coprimary outcomes of the GaPP2 trial: worst and average pain. Gabapentin ‘responders’ were defined as having reported a ≥30% reduction in worst and/or average pain scores on a numerical rating scale (1-10) after 12 weeks of gabapentin exposure. Gabapentin intolerance was also categorised categorically using a cut-off of ≥3 side-effects reported during the study period. […]
# [6] = system: women with chronic pelvic pain; settings: GaPP2 trial, women with CPP (reference 7); cited from earlier work; remark: listed apart in the source
# [7] = Pain non-responder group (n = 46)
# [8] = after 12 weeks of gabapentin exposure, genotyped participants
compound,measurement,setting,value
NCC1(CC(=O)O)CCCCC1 [gabapentin],fMRI punctate activation after treatment versus before,[1],decrease in punctate activation
same,effect on brain region in response to abdominal punctate stimuli (functional MRI),[2],appeared to exert an effect on the anterior cingulate cortex
same,improvement of worst or average pain scores versus placebo,[3],not superior to placebo
same,"Average pain (NRS), End of study",[4]; [7],5.8
same,"Worst pain (NRS), End of study",[4]; [7],9
same,"Average pain (NRS), End of study","[4]; Pain responder group (n = 31), gabapentin titrated to maximum 2700 mg daily",2.5
same,"Worst pain (NRS), End of study",[4]; Pain responder group (n = 31),6
same,number of pain non-responders,[4]; [8],(n = 46)
same,number of pain responders (≥30% reduction in worst and/or average pain scores),[4]; [8],(n = 31)
same,average reduction in average pain,[4]; subjects in the gabapentin pain responder group,47%
same,number of participants with <3 side-effects,[5],<3 side-effects (n = 23)
same,number of participants with ≥3 side-effects,[5],≥3 side-effects (n = 53)
same,side-effects versus placebo,[6],associated with more side-effects
